Data published in ChEMBL document CHEMBL4651402, “Screening of ~5500 FDA-approved drugs and clinical candidates for anti-SARS-CoV-2 activity” (2021).

System: SARS-CoV-2
Assay: microbe, parasite or virus in culture
Conditions: Severe acute respiratory syndrome coronavirus 2, Vero C1008, 48 h

| Structure (SMILES) | IC50 | IC50 (read-out: pIC50 (converted)) |
| --- | --- | --- |
| CC1(C)CC23C(=O)CCC(O)C2(C)CCC13 (centres undefined) [3-NOR-3-OXOPANASINSAN-6-OL] | > 20 µM | > 20 µM |
| Cc1cc(NC(=O)NCCN2CCC(O)(Cc3ccccc3)CC2)c2ccccc2n1 [PALOSURAN] | > 20 µM | > 20 µM |
| Cc1[nH]c2ccccc2c1CN(C)C [2-METHYL GRAMINE] | > 20 µM | > 20 µM |
| CCC(=O)O[C@]1(C(=O)CCl)[C@@H](C)C[C@H]2[C@@H]3CCC4=CC(=O)C=C[C@]4(C)[C@@]3(F)[C@@H](O)C[C@@]21C [CLOBETASOL PROPIONATE] | > 20 µM | > 20 µM |
| O=C(NC1CCN(CCc2c[nH]c3ccccc23)CC1)c1ccccc1 [INDORAMIN] | > 20 µM | > 20 µM |
| C=C1CC23CCC4C(C)(C(=O)O)CCCC4(C)C2CCC1(OC1OC(CO)C(O)C(O)C1OC1OC(CO)C(O)C(O)C1O)C3 (centres undefined) | > 20 µM | > 20 µM |
| COc1ccc(CCN(C)CCCC2(c3ccc(OC)c(OC)c3)S(=O)(=O)CCCS2(=O)=O)cc1OC | > 20 µM | > 20 µM |
| COc1ccc(CCN(C)CCCC(C#N)(c2cc(OC)c(OC)c(OC)c2)C(C)C)cc1OC (centres undefined) [GALLOPAMIL] | > 20 µM | > 20 µM |
| Cc1ccc(-n2nccn2)c(C(=O)N2CCN(c3nc4cc(Cl)ccc4o3)CC[C@H]2C)c1 [SUVOREXANT] | > 20 µM | > 20 µM |
| [O-][S+](c1cc(Cl)cc(Cl)c1O)c1cc(Cl)cc(Cl)c1O [BITHIONOLOXIDE] | > 20 µM | > 20 µM |
| N[C@H]1C(O)O[C@H](CO)[C@@H](O)[C@@H]1O (some centres undefined) [GLUCOSAMINE] | > 20 µM | > 20 µM |
| CCCN1CCC[C@@H](c2cccc(S(C)(=O)=O)c2)C1 | > 20 µM | > 20 µM |
| CCCCOC(=O)c1ccc(N)cc1 [BUTAMBEN] | > 20 µM | > 20 µM |
| COc1cc2nc(N(C)CCCNC(=O)C3CCCO3)nc(N)c2cc1OC (centres undefined) [ALFUZOSIN] | > 20 µM | > 20 µM |
| N#CC[C@@H](C1CCCC1)n1cc(-c2ncnc3[nH]ccc23)cn1 | > 20 µM | > 20 µM |
| OC[C@H]1O[C@H](O)C[C@@H](O)[C@@H]1O | > 20 µM | > 20 µM |
| O[C@H]1CC[C@H](Nc2ncc3nc(Nc4c(F)cc(F)cc4F)n([C@H]4CCOC4)c3n2)CC1 [TANZISERTIB] | > 20 µM | > 20 µM |
| O=C(/C=C/c1ccc(O)c(O)c1)O[C@H](Cc1ccc(O)c(O)c1)C(=O)O [ROSMARINIC ACID] | > 20 µM | > 20 µM |
| Cc1nc2n(c(=O)c1CCN1CCC(c3noc4cc(F)ccc34)CC1)CCCC2 [RISPERIDONE] | > 20 µM | > 20 µM |
| COCCOc1cnc(NS(=O)(=O)c2ccccc2)nc1 [GLYMIDINE] | > 20 µM | > 20 µM |
| COc1ccc(-n2nc(C(N)=O)c3c2C(=O)N(c2ccc(N4CCCCC4=O)cc2)CC3)cc1 [APIXABAN] | > 20 µM | > 20 µM |

| Structure (SMILES) | IC50 | IC50 (read-out: pIC50 (converted)) |
| --- | --- | --- |
| CC1CC(OC(=O)C2CCC(=O)N2)CC(C)(C)C1 (centres undefined) | > 20 µM | > 20 µM |
| NC(=O)c1ccn2c1CS[C@@H]2c1cccnc1 [DACOPAFANT] | > 20 µM | > 20 µM |
| CCCc1nc2c(C)cc(-c3nc4ccccc4n3C)cc2n1Cc1ccc(-c2ccccc2C(=O)O)cc1 | > 20 µM | > 20 µM |
| O=C(O)CCC(=O)C(=O)O [ALPHA-KETOGLUTARIC ACID] | > 20 µM | > 20 µM |
| C[C@@H]1C\C=C/C=C\C=C/C=C\[C@H](O[C@@H]2O[C@H](C)[C@@H](O)[C@H](N)[C@@H]2O)C[C@@H]2O[C@](O)(C[C@@H](O)C[C@H]3O[C@@H]3/C=C\C(=O)O1)C[C@H](O)[C@H]2C(=O)O | > 20 µM | > 20 µM |
| CN1CCc2cc3c(cc2[C@H]1[C@@H]1OC(=O)c2c1ccc1c2OCO1)OCO3 [BICUCULLINE] | > 20 µM | > 20 µM |
| CC1CC2Oc3ccc(Cl)cc3C(=O)N2O1 (centres undefined) [MESECLAZONE] | > 20 µM | > 20 µM |
| NCCCC(O)(P(=O)(O)O)P(=O)(O)O [ALENDRONIC ACID] | > 20 µM | > 20 µM |
| CN(C)C/C=C/C(=O)Nc1cc2c(Nc3ccc(F)c(Cl)c3)ncnc2cc1O[C@H]1CCOC1 [AFATINIB] | > 20 µM | > 20 µM |
| CCN(CC)CCOC(=O)C1(c2ccccc2)CCCC1 | > 20 µM | > 20 µM |
| Nc1ncnc2c1ccn2[C@@H]1O[C@H](CO)[C@@H](O)[C@H]1O [TUBERCIDIN] | > 20 µM | > 20 µM |
| CC(S)C(=O)NCC(=O)O (centres undefined) [TIOPRONIN] | > 20 µM | > 20 µM |
| CC(Oc1ccc(Cl)cc1Cl)C(=O)O (stereo not drawn) [RAC-DICHLORPROP] | > 20 µM | > 20 µM |
| Cc1ccccc1OCC(O)CO (centres undefined) [MEPHENESIN] | > 20 µM | > 20 µM |
| CCN(CC)CCOC(=O)C(c1ccccc1)N1CCCCC1 (centres undefined) [BIETAMIVERINE] | > 20 µM | > 20 µM |
| CCC(/C=C/C(C)C1CCC2C3CC=C4CC(O)CCC4(C)C3CCC12C)C(C)C (centres undefined) | > 20 µM | > 20 µM |
| C=C[C@](C)(O)CC[C@H]1C(=C)C[C@H](OC(C)=O)[C@H]2C(C)(C)CCC[C@]12C | > 20 µM | > 20 µM |
| COc1cc2c(cc1OC)[C@H]1CC(=O)[C@H](CC(C)C)CN1CC2 | > 20 µM | > 20 µM |
| [2H]C1([2H])[C@H]2C[C@@H](Oc3ccc(C(F)(F)F)cn3)[C@H](C2)N1C(=O)c1cccc(F)c1-c1ncccn1 [TEBIDEUTOREXANT] | > 20 µM | > 20 µM |
| COc1ccc(C[C@H]2NC[C@H](O)[C@H]2OC(C)=O)cc1 [ANISOMYCIN] | > 20 µM | > 20 µM |
| CCCCCCCCCCCC[N+](C)(C)CC(=O)O | > 20 µM | > 20 µM |

| Structure (SMILES) | IC50 | IC50 (read-out: pIC50 (converted)) |
| --- | --- | --- |
| C=CC(=O)N1C[C@H](COc2nc(Nc3cnn(C)c3)nc3[nH]cc(Cl)c23)[C@@H](OC)C1 [PF-06459988] | > 20 µM | > 20 µM |
| COc1cc2c(cc1OC)CC(=O)N(CCCN(C)C[C@H]1Cc3cc(OC)c(OC)cc31)CC2 [IVABRADINE] | > 20 µM | > 20 µM |
| NCCC(O)C(=O)N[C@H]1C[C@@H](N)[C@H](O[C@H]2O[C@H](CN)[C@@H](O)[C@H](O)[C@H]2O)[C@@H](O)[C@@H]1O[C@H]1O[C@H](CO)[C@@H](O)[C@H](N)[C@H]1O (some centres undefined) | > 20 µM | > 20 µM |
| CCN(CC)CCc1nc(-c2ccccc2)no1 [OXOLAMINE] | > 20 µM | > 20 µM |
| CC(=O)NC1(c2ccccc2)CCN(CC[C@@H](CN(C)C(=O)c2ccccc2)c2ccc(Cl)c(Cl)c2)CC1 | > 20 µM | > 20 µM |
| CCOc1ccc(NC(=O)CC(C)O)cc1 (centres undefined) [BUCETIN] | > 20 µM | > 20 µM |
| CC12CCC(=O)C[C@@H]1CCC1C2CCC2(C)C1CCC2(C)O (some centres undefined) | > 20 µM | > 20 µM |
| COC(=O)C1=C(CN2CC(F)(F)C[C@H]2C(=O)O)NC(c2nccs2)=N[C@@]1(C)c1ccc(F)cc1 | > 20 µM | > 20 µM |
| Nc1ccn([C@H]2C[C@H](O)[C@@H](CO)O2)c(=O)n1 [DOXECITINE] | > 20 µM | > 20 µM |
| Cn1c(=O)c2c(ncn2CC(=O)O)n(C)c1=O [ACEFYLLINE] | > 20 µM | > 20 µM |
| CC(C)(C)C(=O)NNCc1ccccc1 [PIVHYDRAZINE] | > 20 µM | > 20 µM |
| COc1ccccc1N1CCN(CCCNc2cc(=O)n(C)c(=O)n2C)CC1 | > 20 µM | > 20 µM |
| C/C=C(\C)C(=O)O[C@@H]1c2c(ccc3ccc(=O)oc23)OC(C)(C)[C@@H]1OC(C)=O [PTERYXIN] | > 20 µM | > 20 µM |
| CN(C)C1C(O)=C(C(N)=O)C(=O)C2(O)C(O)=C3C(=O)c4c(O)ccc(Cl)c4C(C)(O)C3CC12 (centres undefined) | > 20 µM | > 20 µM |
| CC(C)=CCC1=C(O)C(=O)c2ccccc2C1=O [LAPACHOL] | > 20 µM | > 20 µM |
| O=c1cc[nH]c(=O)[nH]1 [URACIL] | > 20 µM | > 20 µM |
| O=C(O)COC[C@H]1CC[C@H](COC(=O)N(c2ccccc2)c2ccc(Cl)cc2)CC1 | > 20 µM | > 20 µM |
| NC(=O)NC(CC(=O)O)C(=O)O (centres undefined) | > 20 µM | > 20 µM |
| CCC(=O)c1ccc(OCC(O)CN2CCN(c3ccccc3)CC2)cc1 (centres undefined) | > 20 µM | > 20 µM |
| CC(C)[C@H](N/C(=N\S(=O)(=O)c1ccc(Cl)cc1)N1C[C@H](c2ccccc2)C(c2ccc(Cl)cc2)=N1)C(N)=O | > 20 µM | > 20 µM |
